Marks after values point to notes of the source that are not given here.
Columns and labels:
HRP-Goat A'Mouse IgG = experiment: Enzymatic determination of protein binding to coated medium binding polystyrene plate; conditions: coated medium binding PS; versus uncoated high binding polystyrene plate; absorbance 405 nm
Experimental: The surfactants were coated onto a medium binding polystyrene plate (Corning Costar No. 2587) as described in Material and Methods. A medium binding polystyrene plate (Corning Costar No. 2587) and a high binding polystyrene plate (Corning Costar No. 2581) were used as controls.
(a) HRP-Goat A'Mouse IgG: Kirkegaard & Perry Laboratories, Inc. Catalog No. 074-1806. Stock solution: 0.5 mg/ml; working concentration: 0.04 μg/ml. The working concentration was obtained by adding 11 μl of the stock solution per 25 mls of PBS pH 7.4 to produce a work stock (WS), and then diluting 1:6 (i.e., 10 mls WS+50 mls PBS pH 7.4).
(1) 100 μl-well of HRP-Goat A'Mouse IgG at a concentration of 0.04 μg/ml were added to the test wells and incubated for 1 hour at room temperature.
(2) The wells were then washed 5 times with the 1M wash solution. Each wash include a 5 minute soak followed by decanting.
(3) 100 μl/well of substrate (30 mls ABTS+30 mls H2O2) were added to the test wells and incubated for 15 minutes at room temperature in the dark.
(4) 100 μl/well of stopping solution (1% SDS) were added to the test wells.
(5) The plates were then shaken and read at 405 nm.
(6) Reduction in binding was determined by comparing the absorbance measured in step (5) with the absorbance measured for a high binding polystyrene plate which had not been treated with a non-ionic surfactant but otherwise subjected to steps (1) to (5).

Horse IgG = experiment: Protein binding by colloidal gold staining, coated medium binding polystyrene plates; conditions: coated medium binding PS; IgG 10 μg/ml, pH 9.4
Experimental: Except where indicated, the non-ionic surfactants were applied to the hydrophobic surfaces being tested as a 0.1% (weight/volume) solution in isopropanol. A sufficient amount of coating solution was used to cover the surface being testing with a thin layer of the solution (e.g., 25 μl of the solution per well for a standard 24-well plate). In some cases, the solution was applied to surface by spraying; in others, it was poured onto the surface (into the well). Except where indicated, coated samples were either dried at 70° C. for 30 minutes in an air circulated oven or dried at room temperature overnight to evaporate the isopropanol.
Protein binding was determined in some examples using a colloidal gold straining procedure. In accordance with this procedure, colloidal gold becomes electrostatically attached to bound protein and is detected by measuring absorbance at 550 nanometers. Bio-Rad Laboratories' Colloidal Gold Total Protein Stain was used for this purpose, with absorbance being measured with a Cambridge Technologies Plate Reader (No. 7520).
The surfactants were coated onto medium binding polystyrene plates (Corning Costar No. 2587) as described in Material and Methods.
The plates were incubated with IgG as follows: 0.1 ml of Horse IgG (Pierce Labs) at a working concentration of 10 μg/ml in 0.10M NaHCO3 buffer (pH9.4) were added to each well, incubated 30 minutes on a rocker table, and rinsed with dI H2O. The plates were gold stained overnight (0.3 ml/well), rinsed in dI H2O, air dried, and absorbance was measured at 550 nm.

IgG [1] = experiment: IgG/Au staining of coated polystyrene, type of endgroups
Experimental: Except where indicated, the non-ionic surfactants were applied to the hydrophobic surfaces being tested as a 0.1% (weight/volume) solution in isopropanol. A sufficient amount of coating solution was used to cover the surface being testing with a thin layer of the solution (e.g., 25 μl of the solution per well for a standard 24-well plate). In some cases, the solution was applied to surface by spraying; in others, it was poured onto the surface (into the well). Except where indicated, coated samples were either dried at 70° C. for 30 minutes in an air circulated oven or dried at room temperature overnight to evaporate the isopropanol. Protein binding was determined in some examples using a colloidal gold straining procedure. In accordance with this procedure, colloidal gold becomes electrostatically attached to bound protein and is detected by measuring absorbance at 550 nanometers. Bio-Rad Laboratories' Colloidal Gold Total Protein Stain was used for this purpose, with absorbance being measured with a Cambridge Technologies Plate Reader (No. 7520). The non-ionic surfactants listed in Table 6 were tested for their ability to produce a low binding surface using the techniques described in Materials and Methods. Polystyrene was used as the hydrophobic test surface and IgG/Au staining was used as the readout.

bound protein = experiment: Colloidal gold staining of bound protein after MDCK culture in media containing 5% FBS, visual; conditions: colloidal gold after cell culture, visual observation
Experimental: The procedures used were as follows. Polystyrene 24-well plates were coated with the non-ionic surfactants listed in Table 5 in accordance with the procedures described in Materials and Methods. Uncoated plates were used as a control. For comparison, plates with a covalently attached acrylamide coating (Corning Costar Catalog #2500) and with a stearic acid coating were also tested. The stearic acid coating was applied in the same manner as the non-ionic surfactants again using a 0.1% (w/v) solution.
The plates were gamma sterilized at 1.5 Mrad and then inoculated with 5.6×10^4 MDCK […] per well in 1 ml of complete media containing 5% FBS (Fetal Bovine Serum). Incubation was carried out at 37° C. in a 5% CO2 atmosphere for two days. The plates were fixed and stained, and cell attachment was noted. Following this, the wells were stained using the colloidal gold technique to detect bound protein. Only visual observations were made.

[2] = test system: ^125I-IgG (goat anti-mouse); experiment: Radiometric determination of IgG binding to surfactant-coated polystyrene microtiter wells; conditions: for Total IgG binding, Non-Sterilized: coated polystyrene wells; for Total IgG binding, Non-Sterilized / Tight IgG binding, Non-Sterilized: not sterilized; for Total IgG binding, Non-Sterilized / Total IgG binding, Sterilized: after three PBS washes; for Total IgG binding, Sterilized / Tight IgG binding, Sterilized: gamma sterilized (1.5 Mrad); for Tight IgG binding, Sterilized / Tight IgG binding, Non-Sterilized: after two hours in PBS-Tween (0.05%)
Experimental: The hydrophobic surfaces used were flat bottom microtiter plates composed of high binding polystyrene (Corning Costar No. 2581) and medium binding polystyrene (Corning Costar No. 2587). Testing was performed with and without gamma radiation sterilization using cobalt 60 (1.5 Mrad).
The surfactants were applied to the test plates as described in Materials and Methods, followed by sterilization where indicated.
Levels of protein binding were determined using a radiolabeled protein, namely, ^125I-IgG (goat anti-mouse) purchased from DuPont/NEN. Unlabeled IgG in sodium carbonate buffer pH 9.2 was spiked with ^125I-IgG so that the final concentration of labeled IgG and cold IgG in the test solution was 10 μg/mL.
Aliquots of 0.1 milliliters of the protein solution were placed in quadruplicate in the wells of 8-well strips removed from the test microtiter plates. The wells were incubated overnight at 4° C. with shaking. The supernatants were removed from the wells, followed by three washes with 0.2 mL of PBS. The wells were then dried and individually counted to determine “total” IgG binding. After determining “total” binding, the wells were incubated for two hours in 0.2 mL of PBS-Tween (0.05%) at room temperature with shaking. The supernatants were removed from the wells followed by three washes with 0.2 mL of PBS. The wells were dried and individually counted to determine “tight” IgG binding.
Untreated high binding and medium binding plates were used as controls. A comparative experiment was also performed in which a BSA protein coating was used in place of a surfactant coating. The BSA was preabsorbed onto the walls of the wells and then washed to remove excess material. Testing was then performed using the radiolabeled IgG solution as described above.
Radiolabel measurements were performed in a double blind study at BioMolecular Assays (Woburn, Mass.). IgG binding values per microwell were converted to ng/cm^2 values using a surface area of 0.94 cm^2 for a 0.1 mL volume.

[3] = test system: BSA protein (Bovine Serum Albumin, Fraction V); experiment: BSA binding to coated polystyrene 24-well plates at different pH, colloidal gold stain; conditions: for Absorbance (550 nm) pH = 9.2: BSA 10 μg/ml in 0.10 M NaHCO3 buffer; for Absorbance (550 nm) pH = 7.4: BSA 10 μg/ml in 0.10 M PBS; for Absorbance (550 nm) pH = 4.6: BSA 10 μg/ml in 0.10 M acetate buffer
Experimental: Polystyrene plates having 24 wells (Corning Costar #9447) were coated as described in Materials and Methods.
BSA protein (Bovine Serum Albumin, Fraction V, Sigma) was prepared at 10 μg/ml in 0.10 M acetate buffer (pH=4.6), in 0.10 M PBS (pH=7.4), and in 0.10 M NaHCO3 buffer (pH=9.2). Wells of each coated plate, along with uncoated controls, were aliquoted 0.50 ml each of the protein solutions. The samples were run in triplicate.
The plates were placed on a rocker table for 30 minutes at 23° C. The protein solutions were then emptied from the plates, and the wells were rinsed three times with dl H2O. Thereafter, 1.0 ml of colloidal gold stain was added to each well (see Materials and Methods). The plates were placed on a rocker table overnight, rinsed three times with dI H2O, and air dried. Absorbance at 550 nm was then read using the Cambridge Technologies Plate Reader.

BSA = experiment: Polymer blends molded into petri dishes, BSA binding by colloidal gold
Experimental: (§1) Low binding non-ionic surfactant molecules were blended at 5% (except as noted in Table 13) into a base polymer using a twin screw extruder, then injection molded into the shape of 35 mm petri dishes. Proteins tested were BSA and Fetal Bovine Serum (FBS). Protein binding was determined using a colloidal gold staining procedure as described above. In the case of the polypropylene and EVA blends, a silver enhancer was used (Sigma Chem. Co., St, Louis, Mo., Kit #SE-100).

Fetal Bovine Serum (FBS) = experiment: Polymer blends molded into petri dishes, FBS protein binding by colloidal gold
Experimental: as §1

rat = conditions: cited from earlier work
IgG [4] = experiment: Coating durability using water washes, IgG binding by colloidal gold; conditions: for Absorbance (550 nm) Initial: coated polystyrene, no water wash; for Absorbance (550 nm) 1 Time 1 hr 23° C. / Absorbance (550 nm) 1 Time 24 hr 23° C. / Absorbance (550 nm) 1 Time 24 hr 37° C. / Absorbance (550 nm) 1 Time 24 hr 70° C.: dI H2O wash 1 time; for Absorbance (550 nm) 6 Times 30 min each 23° C.: dI H2O wash 6 times
Experimental: Polystyrene plates having 24 wells (Corning Costar #9447) were coated with these surfactants as described in Materials and Methods. Durability was tested by adding dI H2O to the wells of a test plate (3.0 mls/well), following which the plate was placed on a rocker table. […] The protein solution was incubated with the plate on a rocker table for 30 minutes at 23° C., following which the plate was H2O rinse 3× (3 mls each time). The colloidal gold staining procedure described above was used to reveal bound protein. The staining comprised an overnight incubation on a rocker table at 23° C., a dI H2O rinse, drying at room temperature, and reading at 550 nm.

[5] = blended at 5% into polypropylene, silver enhancer

For `CCCCCCCC/C=C\CCCCCCCC(=O)OCC(O)CO` (centres unmarked) [GLYCEROL MONO-OLEATE], the “% Reduction in Protein Binding” value (HRP-Goat A'Mouse IgG) was 92.4%.

In the case of `CCCCCCCCCCCCCCCCOCCOCCO` [PEO(2) CETYL ETHER], the “IgG Protein Binding Absorbance (550 nm)” value (Horse IgG) is reported as 0.00, the “Bound Protein Absorbance at 550 nm” value (IgG [1]) is reported as 0.00 and the “Visual Color Upon Protein Staining” value (bound protein) is reported as “None”. For the same compound, the “Total IgG binding, Non-Sterilized” value [2] was 18 ng/cm^2, the “Total IgG binding, Sterilized” value [2] was 54 ng/cm^2 and the “Tight IgG binding, Sterilized” value [2] was 25 ng/cm^2. The “Tight IgG binding, Non-Sterilized” value [2] was 11 ng/cm^2, the “Absorbance (550 nm) pH = 9.2” value [3] was 0.00 and the “Absorbance (550 nm) pH = 7.4” value [3] was 0.00. The “Absorbance (550 nm) pH = 4.6” value [3] was 0.00 and the “% Reduction in Protein Binding” value (HRP-Goat A'Mouse IgG) was 99.9%.

For SORBITOL TRI-STEARATE, the “Bound Protein Absorbance (550 nm) BSA” value (BSA; blended at 5% into polystyrene) was 0.005 and the “Bound Protein Absorbance (550 nm) FBS” value (Fetal Bovine Serum (FBS); blended at 5% into polystyrene) was 0.008.

In the case of PEO(200) DI-OLEATE, the “Bound Protein Absorbance at 550 nm” value (IgG [1]) is reported as 0.15.

For `O=[As]O[As]=O` (centres unmarked) [As2O3, reference compound], the LD50 (rat) is given as 0.02 grams/Kg.

In the case of SORBITOL MONO-STEARATE, the “IgG Protein Binding Absorbance (550 nm)” value (Horse IgG) is reported as 0.00, the “Absorbance (550 nm) Initial” value (IgG [4]) is reported as 0.00 and the “Absorbance (550 nm) 1 Time 1 hr 23° C.” value (IgG [4]) is reported as 0.00. For the same compound, the “Absorbance (550 nm) 1 Time 24 hr 23° C.” value (IgG [4]) was 0.00, the “Absorbance (550 nm) 1 Time 24 hr 37° C.” value (IgG [4]) was 0.00 and the “Absorbance (550 nm) 1 Time 24 hr 70° C.” value (IgG [4]) was 0.00. For the same compound, the “Absorbance (550 nm) 6 Times 30 min each 23° C.” value (IgG [4]) was 0.00, the “Bound Protein Absorbance (550 nm) BSA” value (BSA; [5]) was 0.000 and the “Bound Protein Absorbance (550 nm) FBS” value (Fetal Bovine Serum (FBS); [5]) was 0.000. The “Absorbance (550 nm) pH = 9.2” value [3] was 0.00, the “Absorbance (550 nm) pH = 7.4” value [3] was 0.00 and the “Absorbance (550 nm) pH = 4.6” value [3] was 0.00. For the same compound, the “% Reduction in Protein Binding” value (HRP-Goat A'Mouse IgG) was 83.1* %.

For PEO(4) SORBITOL MONO-LAURATE, the “IgG Protein Binding Absorbance (550 nm)” value (Horse IgG) was 0.00, the “Absorbance (550 nm) Initial” value (IgG [4]) was 0.00 and the “Absorbance (550 nm) 1 Time 1 hr 23° C.” value (IgG [4]) was 0.09. The “Absorbance (550 nm) 1 Time 24 hr 23° C.” value (IgG [4]) was 0.10, the “Absorbance (550 nm) 1 Time 24 hr 37° C.” value (IgG [4]) was 0.10 and the “Absorbance (550 nm) 1 Time 24 hr 70° C.” value (IgG [4]) was 0.10. For the same compound, the “Absorbance (550 nm) 6 Times 30 min each 23° C.” value (IgG [4]) was 0.10, the “Bound Protein Absorbance at 550 nm” value (IgG [1]) was 0.00 and the “Bound Protein Absorbance (550 nm) BSA” value (BSA; [5]) was 0.060. For the same compound, the “Bound Protein Absorbance (550 nm) FBS” value (Fetal Bovine Serum (FBS); [5]) was 0.056, the “Total IgG binding, Non-Sterilized” value [2] was 4 ng/cm^2 and the “Total IgG binding, Sterilized” value [2] was 5 ng/cm^2. The “Tight IgG binding, Sterilized” value [2] was 3 ng/cm^2, the “Tight IgG binding, Non-Sterilized” value [2] was 2 ng/cm^2 and the “% Reduction in Protein Binding” value (HRP-Goat A'Mouse IgG) was 99.8%.

Reference: patent US7776572B2, “Method for reducing loss of enzyme activity during storage” (Corning Incorporated, priority 1996, dated 2010)
